Data as given in PubChem BioAssay AID2060889 (Molecular Pharmacology Branch, DTP, NCI, 2025).

Test system: LG0567-F671-PDC complex spheroids viability
Test: Anticancer human tumor LG0567-F671-PDC patient-derived lung adenocarcinoma cell line growth inhibition [RAS]
Details: for viability, T/C: stronger effect = lower value
Procedure, shortened: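 Tumour cells grown as complex spheroids with HUVEC endothelial cells and mesenchymal stem cells, treated with RAS pathway inhibitor combinations. Each agent spans half-log steps from near clinical Cmax, or 10 microM where Cmax is unknown.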

[1] = curve of first compound, second compound 0.000949 µM
[2] = curve of first compound, second compound 0.003 µM
[3] = curve of first compound, second compound 0.00949 µM
[4] = curve of first compound, second compound 0.03 µM
[5] = curve of first compound, second compound 0.0949 µM
[6] = curve of first compound, second compound 0.3 µM
[7] = second compound 0.000949 µM, first compound 0.0316 µM
[8] = second compound 0.000949 µM, first compound 0.1 µM
[9] = second compound 0.000949 µM, first compound 0.316 µM
[10] = second compound 0.000949 µM, first compound 1 µM
[11] = second compound 0.003 µM, first compound 0.0316 µM
[12] = second compound 0.003 µM, first compound 0.1 µM
[13] = second compound 0.003 µM, first compound 0.316 µM
[14] = second compound 0.003 µM, first compound 1 µM
[15] = second compound 0.00949 µM, first compound 0.0316 µM
[16] = second compound 0.00949 µM, first compound 0.1 µM
[17] = second compound 0.00949 µM, first compound 0.316 µM
[18] = second compound 0.00949 µM, first compound 1 µM
[19] = second compound 0.03 µM, first compound 0.0316 µM
[20] = second compound 0.03 µM, first compound 0.1 µM
[21] = second compound 0.03 µM, first compound 0.316 µM
[22] = second compound 0.03 µM, first compound 1 µM
[23] = second compound 0.0949 µM, first compound 0.0316 µM
[24] = second compound 0.0949 µM, first compound 0.1 µM
[25] = second compound 0.0949 µM, first compound 0.316 µM
[26] = second compound 0.0949 µM, first compound 1 µM
[27] = second compound 0.3 µM, first compound 0.0316 µM
[28] = second compound 0.3 µM, first compound 0.1 µM
[29] = second compound 0.3 µM, first compound 0.316 µM
[30] = second compound 0.3 µM, first compound 1 µM
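Note: spheroids exposed to compound for seven days before readout.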
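Throughout, for IC50: luminescence signal used as a proxy for viable cells.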

CC(C)NCC(C(=O)N1CCN(c2ncnc3c2C(C)CC3O)CC1)c1ccc(Cl)cc1 (stereo unspecified) + CCn1c(-c2cccnc2C(C)OC)c2c3cc(ccc31)N1CCOC(CC(NC(=O)C(C(C)C)N(C)C(=O)C3(F)CCN(C(=O)C#CC(C)(C)N(C)C)CC3)C(=O)N3CCCC(N3)C(=O)OCC(C)(C)C2)C1
IC50 [1]: < 31.6 nM | IC50 [2]: < 31.6 nM | IC50 [3]: < 31.6 nM | IC50 [4]: < 31.6 nM | IC50 [5]: < 31.6 nM | IC50 [6]: < 31.6 nM | viability, T/C [7]: 11.2% | viability, T/C [8]: 13.7% | viability, T/C [9]: 12.3% | viability, T/C [10]: 12.3% | viability, T/C (second compound 0.000949 µM, first compound 3.16 µM): 8.16% | viability, T/C (second compound 0.000949 µM, first compound 10 µM): 8.26% | viability, T/C [11]: 12.4% | viability, T/C [12]: 11.7% | viability, T/C [13]: 11.7% | viability, T/C [14]: 10.8% | viability, T/C (second compound 0.003 µM, first compound 3.16 µM): 8.33% | viability, T/C (second compound 0.003 µM, first compound 10 µM): 7.72% | viability, T/C [15]: 11% | viability, T/C [16]: 11.3% | viability, T/C [17]: 12.6% | viability, T/C [18]: 10.1% | viability, T/C (second compound 0.00949 µM, first compound 3.16 µM): 8.54% | viability, T/C (second compound 0.00949 µM, first compound 10 µM): 7.28% | viability, T/C [19]: 11.5% | viability, T/C [20]: 10.2% | viability, T/C [21]: 12.5% | viability, T/C [22]: 8.64% | viability, T/C (second compound 0.03 µM, first compound 3.16 µM): 7.32% | viability, T/C (second compound 0.03 µM, first compound 10 µM): 7.5% | viability, T/C [23]: 9.18% | viability, T/C [24]: 10.3% | viability, T/C [25]: 10.3% | viability, T/C [26]: 8.97% | viability, T/C (second compound 0.0949 µM, first compound 3.16 µM): 6.83% | viability, T/C (second compound 0.0949 µM, first compound 10 µM): 6.43% | viability, T/C [27]: 8.3% | viability, T/C [28]: 10.2% | viability, T/C [29]: 8.96% | viability, T/C [30]: 6.59% | viability, T/C (second compound 0.3 µM, first compound 3.16 µM): 6.6% | viability, T/C (second compound 0.3 µM, first compound 10 µM): 5.25%

C=CC(=O)Nc1cc(Nc2nccc(-c3cn(C)c4ccccc34)n2)c(OC)cc1N(C)CCN(C)C + CCn1c(-c2cccnc2C(C)OC)c2c3cc(ccc31)N1CCOC(CC(NC(=O)C(C(C)C)N(C)C(=O)C3(F)CCN(C(=O)C#CC(C)(C)N(C)C)CC3)C(=O)N3CCCC(N3)C(=O)OCC(C)(C)C2)C1
IC50 [1]: < 3.16 nM | IC50 [2]: < 3.16 nM | IC50 [3]: < 3.16 nM | IC50 [4]: < 3.16 nM | IC50 [5]: < 3.16 nM | IC50 [6]: < 3.16 nM | viability, T/C (second compound 0.000949 µM, first compound 0.00316 µM): 15.6% | viability, T/C (second compound 0.000949 µM, first compound 0.01 µM): 14% | viability, T/C [7]: 12.5% | viability, T/C [8]: 9.48% | viability, T/C [9]: 14.1% | viability, T/C [10]: 3.07% | viability, T/C (second compound 0.003 µM, first compound 0.00316 µM): 13.4% | viability, T/C (second compound 0.003 µM, first compound 0.01 µM): 13.9% | viability, T/C [11]: 13% | viability, T/C [12]: 9.78% | viability, T/C [13]: 6.6% | viability, T/C [14]: 2.75% | viability, T/C (second compound 0.00949 µM, first compound 0.00316 µM): 20% | viability, T/C (second compound 0.00949 µM, first compound 0.01 µM): 12.7% | viability, T/C [15]: 11.6% | viability, T/C [16]: 9.64% | viability, T/C [17]: 6.15% | viability, T/C [18]: 7.2% | viability, T/C (second compound 0.03 µM, first compound 0.00316 µM): 12% | viability, T/C (second compound 0.03 µM, first compound 0.01 µM): 11.5% | viability, T/C [19]: 11.2% | viability, T/C [20]: 7.87% | viability, T/C [21]: 5.56% | viability, T/C [22]: 3.05% | viability, T/C (second compound 0.0949 µM, first compound 0.00316 µM): 10.1% | viability, T/C (second compound 0.0949 µM, first compound 0.01 µM): 10.9% | viability, T/C [23]: 10.2% | viability, T/C [24]: 9.54% | viability, T/C [25]: 5.79% | viability, T/C [26]: 2.57% | viability, T/C (second compound 0.3 µM, first compound 0.00316 µM): 12.4% | viability, T/C (second compound 0.3 µM, first compound 0.01 µM): 7.87% | viability, T/C [27]: 7.46% | viability, T/C [28]: 5.58% | viability, T/C [29]: 3.92% | viability, T/C [30]: 2.38%

O=C(c1ccc(F)c(F)c1Nc1ccc(I)cc1F)N1CC(O)([C@@H]2CCCCN2)C1
viability, T/C (compound 0.00316 µM): 85.1% [middle of 4 runs] | viability, T/C (compound 0.01 µM): 58.9% [middle of 4 runs] | viability, T/C (compound 0.0316 µM): 39.8% [middle of 4 runs] | viability, T/C (compound 0.1 µM): 24% [middle of 4 runs] | viability, T/C (compound 0.316 µM): 11.1% [middle of 4 runs] | viability, T/C (compound 1 µM): 3.21% [middle of 4 runs] | IC50 (curve of compound): 17.3 nM [middle of 4 runs]
